Molecular target: T1, hPPARγ (Homo sapiens, UniProt P37231)
T1 construct: Full length PPARs plasmid DNA; expressed in transfected cells; host or cells: CV-1 cells
T1 sequence (P37231 1-505): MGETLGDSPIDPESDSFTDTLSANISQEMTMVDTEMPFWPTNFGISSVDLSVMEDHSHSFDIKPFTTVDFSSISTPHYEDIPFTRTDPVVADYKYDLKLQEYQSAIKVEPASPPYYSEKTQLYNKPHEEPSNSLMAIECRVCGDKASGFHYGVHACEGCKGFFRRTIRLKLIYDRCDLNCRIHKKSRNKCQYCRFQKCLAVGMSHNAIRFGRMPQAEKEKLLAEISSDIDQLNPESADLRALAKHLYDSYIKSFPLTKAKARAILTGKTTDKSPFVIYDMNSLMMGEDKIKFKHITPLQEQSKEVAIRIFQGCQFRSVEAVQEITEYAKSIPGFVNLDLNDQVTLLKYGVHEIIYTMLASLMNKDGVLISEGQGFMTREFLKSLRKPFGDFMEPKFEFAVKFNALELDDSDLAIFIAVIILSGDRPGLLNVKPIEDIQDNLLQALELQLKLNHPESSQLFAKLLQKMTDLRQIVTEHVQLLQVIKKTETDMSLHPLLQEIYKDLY
Test: Transfection assay (luciferase reporter), PPARγ
Format: cell-based
Settings: CV-1 cells, full length PPAR plasmid, 24 hours
Procedure: (§1) The PPARδ activity of the compound represented by formula (I) of the present invention was confirmed by transfection assay. In addition, the selectivity to PPAR subtypes, PPARα and PPARγ was examined. Cytotoxicity was tested by MTT assay and in vivo activity was investigated by animal experiment.
(§2) CV-1 cells were used in this assay. The cells were inoculated in a 96-well plate containing DMEM supplemented with 10% FBS, DBS (delipidated) and 1% penicillin/streptomycin and cultured in a 37° C., 5% CO2 incubator. The experiment was performed according to the steps of inoculation, transfection, sample treatment and confirmation. Particularly, CV-1 cells were inoculated in a 96 well-plate (5000 cells/well), followed by transfection 24 hours later. Full length PPARs plasmid DNA, reporter DNA confirming PPARs activity owing to its luciferase activity, β-galactosidase DNA providing information on transfection efficiency, and transfection reagent were used for the transfection. Samples were dissolved in dimethylsulfoxide (DMSO), which were treated to the cells via media at different concentrations. After culturing the cells in the incubator for 24 hours, the cells were lysed by using lysis buffer. Luciferase activity and β-galactosidase activity were measured with Luminometer and a microplate reader. The obtained values of luciferase were modified by the values of β-galactosidase. A graph was made with those values and EC50 was calculated.

SMILES	EC50 hPPARγ
Cc1cc(SC(Cc2ccccc2)c2ccc(-c3ccc(C(F)(F)F)cc3)cc2)ccc1OC(C)(C)C(=O)O (stereo not drawn) [Compound 22]	ia
CCC(Oc1ccc(SC(Cc2ccccc2)c2ccc(-c3ccc(C(F)(F)F)cc3)cc2)cc1C)C(=O)O (stereo not drawn) [Compound 23]	ia
Cc1cc(SC(Cc2c(F)cccc2C(F)(F)F)c2ccc(-c3ccccc3)cc2)ccc1OCC(=O)O (stereo not drawn) [Compound 66]	ia
Cc1cc([Se]C(Cc2ccccc2)c2ccc(-c3ccc(C(F)(F)F)cc3)cc2)ccc1OCC(=O)O (stereo not drawn) [Compound S164]	ia
Cc1cc([Se]Cc2ccc(-c3ccc(C(F)(F)F)cc3)cc2)ccc1OCC(=O)O [Compound S306]	ia

Molecular target: T2, hPPARα (Homo sapiens, UniProt Q07869)
T2 construct: Full length PPARs plasmid DNA; expressed in transfected cells; host or cells: CV-1 cells
T2 sequence (Q07869 1-468): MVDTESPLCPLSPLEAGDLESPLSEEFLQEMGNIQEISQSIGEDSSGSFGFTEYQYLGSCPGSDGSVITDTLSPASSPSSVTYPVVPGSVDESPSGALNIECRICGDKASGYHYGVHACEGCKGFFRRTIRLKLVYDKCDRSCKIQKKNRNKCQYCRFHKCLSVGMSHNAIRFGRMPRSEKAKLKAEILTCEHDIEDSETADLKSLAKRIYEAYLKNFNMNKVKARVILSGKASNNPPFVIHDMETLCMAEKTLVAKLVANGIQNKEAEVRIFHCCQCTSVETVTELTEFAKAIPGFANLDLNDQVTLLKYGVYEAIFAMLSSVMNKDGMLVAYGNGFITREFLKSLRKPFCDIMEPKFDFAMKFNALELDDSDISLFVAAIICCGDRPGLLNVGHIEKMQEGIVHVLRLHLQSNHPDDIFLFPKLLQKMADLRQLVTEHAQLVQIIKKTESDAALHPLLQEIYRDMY
Test: Transfection assay (luciferase reporter), PPARα
Format: cell-based
Settings: CV-1 cells, full length PPAR plasmid, 24 hours
Procedure: as §1, §2

SMILES	EC50 hPPARα
Cc1cc(SC(Cc2ccccc2)c2ccc(-c3ccc(C(F)(F)F)cc3)cc2)ccc1OC(C)(C)C(=O)O (stereo not drawn) [Compound 22]	ia
CCC(Oc1ccc(SC(Cc2ccccc2)c2ccc(-c3ccc(C(F)(F)F)cc3)cc2)cc1C)C(=O)O (stereo not drawn) [Compound 23]	ia
Cc1cc(SC(Cc2c(F)cccc2C(F)(F)F)c2ccc(-c3ccccc3)cc2)ccc1OCC(=O)O (stereo not drawn) [Compound 66]	ia
Cc1cc([Se]C(Cc2ccccc2)c2ccc(-c3ccc(C(F)(F)F)cc3)cc2)ccc1OCC(=O)O (stereo not drawn) [Compound S164]	ia
Cc1cc([Se]Cc2ccc(-c3ccc(C(F)(F)F)cc3)cc2)ccc1OCC(=O)O [Compound S306]	ia

Molecular target: T3, hPPARδ (Homo sapiens, UniProt Q03181)
T3 construct: Full length PPARs plasmid DNA; expressed in transfected cells; host or cells: CV-1 cells
T3 sequence (Q03181 1-441): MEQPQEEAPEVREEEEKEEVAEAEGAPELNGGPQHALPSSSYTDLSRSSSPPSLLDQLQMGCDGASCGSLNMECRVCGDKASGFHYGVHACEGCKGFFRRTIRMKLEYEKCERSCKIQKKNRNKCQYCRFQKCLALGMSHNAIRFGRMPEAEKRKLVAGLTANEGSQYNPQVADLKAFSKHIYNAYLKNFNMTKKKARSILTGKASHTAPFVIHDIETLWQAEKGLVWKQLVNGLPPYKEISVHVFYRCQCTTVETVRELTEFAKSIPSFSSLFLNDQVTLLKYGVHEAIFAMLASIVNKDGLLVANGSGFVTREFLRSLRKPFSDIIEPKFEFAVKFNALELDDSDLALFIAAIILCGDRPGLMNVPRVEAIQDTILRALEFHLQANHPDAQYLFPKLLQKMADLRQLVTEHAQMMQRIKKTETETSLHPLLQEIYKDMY
Test: Transfection assay (luciferase reporter), PPARδ
Format: cell-based
Settings: CV-1 cells, full length PPAR plasmid, 24 hours
Procedure: as §1, §2

SMILES	EC50
Cc1cc(SC(Cc2ccccc2)c2ccc(-c3ccc(C(F)(F)F)cc3)cc2)ccc1OC(C)(C)C(=O)O (stereo not drawn) [Compound 22]	9.3 nM
CCC(Oc1ccc(SC(Cc2ccccc2)c2ccc(-c3ccc(C(F)(F)F)cc3)cc2)cc1C)C(=O)O (stereo not drawn) [Compound 23]	12 nM
Cc1cc(SC(Cc2c(F)cccc2C(F)(F)F)c2ccc(-c3ccccc3)cc2)ccc1OCC(=O)O (stereo not drawn) [Compound 66]	33 nM
Cc1cc([Se]C(Cc2ccccc2)c2ccc(-c3ccc(C(F)(F)F)cc3)cc2)ccc1OCC(=O)O (stereo not drawn) [Compound S164]	4.5 nM
Cc1cc([Se]Cc2ccc(-c3ccc(C(F)(F)F)cc3)cc2)ccc1OCC(=O)O [Compound S306]	53 nM
